# Source: patent publication US20150352116A1, “HDAC INHIBITOR AND BTK INHIBITOR COMBINATIONS” (Pharmacyclics LLC, priority 2014, published 2015)
# Tests used:
# Type in all cases: cell-based
# [1] = test system: CLL cells; assay: annexin apoptosis assay on CLL cells
# Text: FIG. 5 illustrates an annexin apoptosis assay on CLL cells.
# FIG. 9 illustrates an annexin apoptosis assay on CLL cells.
# (§1) FIG. 1A illustrates a nanostring miRNA expression data table. […] FIG. 1B illustrates HDAC1 knockdown in CLL cells. FIG. 2A illustrates a human BTK mRNA map. […] FIG. 2C illustrates a miRNA map. HDAC inhibition is associated with the accumulation of activating chromatin modifications (H3K4me3) that promote gene re-expression. FIG. 3A illustrates a miRNA expression data table. FIG. 3B illustrates miRNA expression in the presence or absence of 0.4 μM Abexinostat in unmutated 17p CLL. […] FIG. 5 illustrates an annexin apoptosis assay on CLL cells. […] FIG. 6 illustrates survival after leukemia in a TCL-1 mouse model. […] FIG. 9 illustrates an annexin apoptosis assay on CLL cells. […] FIG. 10 illustrates the expression of phosphorylated BTK Y223 in the presence of Abexinostat in AML cells.
# [2] = test system: CLL cells; assay: sensitivity of CLL cells from extended-lymphocytosis or ibrutinib-resistant samples (FIG. 7); settings: samples with extended lymphocytosis or that develop resistance to Ibrutinib
# Protocol: as §1
# [3] = test system: Btk-directed miRNA; assay: miRNA expression in unmutated 17p CLL; settings: 0.4 μM Abexinostat, unmutated 17p (high risk) CLL, FIG. 3B
# Protocol: FIG. 3A illustrates a miRNA expression data table. FIG. 3B illustrates miRNA expression in the presence or absence of 0.4 μM Abexinostat in unmutated 17p CLL.
# as §1
compound,measurement,setting,value
"CN(C)Cc1c(C(=O)NCCOc2ccc(C(=O)NO)cc2)oc2ccccc12 [Abexinostat, 3-[(Dimethylamino)methyl]-N-{2-[4-(hydroxycarbamoyl)phenoxy]ethyl}-1-benzofuran-2-carboxamide]","killing of CLL cells (annexin apoptosis), combination effect","[1]; Abexinostat in combination with ibrutinib, FIG. 5",synergized with ibrutinib to kill CLL cells
same,sensitivity of CLL cells to Abexinostat (annexin apoptosis),"[1]; samples with extended lymphocytosis or that develop resistance to Ibrutinib, FIG. 9",retain sensitivity
same,sensitivity of CLL cells to Abexinostat,[2],retaining sensitivity
same,effect on miRNA expression,[3],de-repression of Btk-directed miRNA
